Test system: patients with Unstable angina/Non ST segment Elevation Myocardial infarction
Assay: randomized, double-blind triple-dummy trial, efficacy (endpoint of the study: all-cause death and new myocardial infarction)
Format: in vivo, human
Text: The following results are based on a randomized, double-blind triple-dummy trial to compare otamixaban to Unfractionated Heparin+eptifibatide, in patients with Unstable angina/Non ST segment Elevation Myocardial infarction scheduled to undergo an early invasive strategy.
Patient with non STE-segment elevation Acute Coronary Syndrome with the following symptoms: […]
UFH: 60 IU/Kg as IV bolus ([…]) followed by an IV infusion of 12 U/Kg/h (max 1000 IU/h) to maintain a PTT at 1.5 to 2.0 times control and at the time of the PCI additional boluses needed if the ACT is not in the range of 200-250 seconds. NB: In order for the study to be blinded, all aPTTs and ACTs performed in order to adjust Drug B (UFH/placebo) dosing will be performed using an encrypted Hemochron Signature Elite machine (or as a back-up, a local device with a third-party unblinded healthcare professional).
Eptifibatide: a single bolus of 180 mcg/kg followed by an infusion of 2 mcg/kg/min. In patients with CrCl<50 mL/min the infusion rate will be decreased to 1 mcg/kg/min.
Primary endpoint: Adjudicated composite of all-cause death and new myocardial infarction (MI) within 7 days following randomization
The events will be adjudicated by a blinded independent adjudication committee. Since the goal of treating acute ACS without persistent ST segment elevation is to prevent associated morbidity and mortality, death and myocardial infarction are considered to be the clinically most meaningful endpoints in therapeutic studies, whereas recurrent ischemia or refractory angina is of more uncertain clinical relevance (EMEA/CPCP/EWP/570/98; February 2008).
The primary endpoint has been defined as the double clinical efficacy endpoint (all cause death and Myocardial Infarction based on centrally adjudicated data) that will be assessed at Day 7. Further estimation of this endpoint will be done at Day 30, Day 90 and Day 180 (end of the follow up) to check persistence of effect as recommended by the EMEA guideline (EMEA/CPCP/EWP/570/98; February 2008).
Myocardial Infarction is considered to be a hard component of a combined efficacy endpoint for confirmatory clinical trials. The definition of Myocardial Infarction will be based on ACC/AHA, ESC and WHF consensus (J Am Coll Cardiol, 2007; 50:2173-2195; Eur Heart J, 2007, 28: 2525-2538): […]

[1] = age 65 to 75 years, Ota. infusion 0.035 mg/Kg/h
[2] = age 65 to 75 years, Ota. infusion 0.070 mg/Kg/h
[3] = age 65 to 75 years, Ota. infusion 0.105 mg/Kg/h
[4] = age 65 to 75 years, Ota. infusion 0.140 mg/Kg/h
[5] = age 65 to 75 years, Ota. infusion 0.175 mg/Kg/h
[6] = age <65 years, Ota. infusion 0.035 mg/Kg/h
[7] = age <65 years, Ota. infusion 0.070 mg/Kg/h
[8] = age <65 years, Ota. infusion 0.105 mg/Kg/h
[9] = age <65 years, Ota. infusion 0.140 mg/Kg/h
[10] = age <65 years, Ota. infusion 0.175 mg/Kg/h
[11] = age older than 75 years, Ota. infusion 0.035 mg/Kg/h
[12] = age older than 75 years, Ota. infusion 0.070 mg/Kg/h
[13] = age older than 75 years, Ota. infusion 0.105 mg/Kg/h
[14] = age older than 75 years, Ota. infusion 0.140 mg/Kg/h
[15] = age older than 75 years, Ota. infusion 0.175 mg/Kg/h
[16] = creatinine clearance 30 to 50 ml/min, Ota. infusion 0.070 mg/Kg/h
[17] = creatinine clearance 30 to 50 ml/min, Ota. infusion 0.105 mg/Kg/h
[18] = creatinine clearance 30 to 50 ml/min, Ota. infusion 0.140 mg/Kg/h
[19] = creatinine clearance 30 to 50 ml/min, Ota. infusion 0.175 mg/Kg/h
[20] = creatinine clearance 50 to 80 ml/min, Ota. infusion 0.035 mg/Kg/h
[21] = creatinine clearance 50 to 80 ml/min, Ota. infusion 0.070 mg/Kg/h
[22] = creatinine clearance 50 to 80 ml/min, Ota. infusion 0.105 mg/Kg/h
[23] = creatinine clearance 50 to 80 ml/min, Ota. infusion 0.140 mg/Kg/h
[24] = creatinine clearance 50 to 80 ml/min, Ota. infusion 0.175 mg/Kg/h
[25] = creatinine clearance <30 ml/min, Ota. infusion 0.140 mg/Kg/h
[26] = creatinine clearance more than 80 ml/min, Ota. infusion 0.035 mg/Kg/h
[27] = creatinine clearance more than 80 ml/min, Ota. infusion 0.070 mg/Kg/h
[28] = creatinine clearance more than 80 ml/min, Ota. infusion 0.105 mg/Kg/h
[29] = creatinine clearance more than 80 ml/min, Ota. infusion 0.140 mg/Kg/h
[30] = creatinine clearance more than 80 ml/min, Ota. infusion 0.175 mg/Kg/h
[31] = dose arms from 0.105 to 0.175 mg/Kg/h (dose arm 3 to 5)

Q: Which “patients who showed the endpoint of the study / patients in the group” value [1] does the source give for `COC(=O)C(Cc1cccc(C(=N)N)c1)[C@@H](C)NC(=O)c1ccc(-c2cc[n+]([O-])cc2)cc1` (mixture of isomers) [Otamixaban, (2R,3R)-2-(3-Carbamimidoyl-benzyl)-3-[4-(1-oxy-pyridin-4-yl)benzoylamino]-butyric acid methyl ester] here?
A: Its value is 2/33.

Q: What about the “patients with endpoint in comparison with the whole number of patients in the group” value (shortened to “patients with endpoint in comparison”) [1] of the same compound?
A: The value was “(6.1%)”.

Q: What about the “patients who showed the endpoint of the study / patients in the group” value [2] of the same compound?
A: Its value is 11/186.

Q: What about the “patients with endpoint in comparison” value [2] of the same compound?
A: Its value is “(5.9%)”.

Q: What about the “patients who showed the endpoint of the study / patients in the group” value [3] of the same compound?
A: Its value is 11/170.

Q: What about the “patients with endpoint in comparison” value [3] of the same compound?
A: Its value is “(6.5%)”.

Q: What about the “patients who showed the endpoint of the study / patients in the group” value [4] of the same compound?
A: Its value is 9/182.

Q: And the “patients with endpoint in comparison” value [4]?
A: Its value is “(4.9%)”.

Q: What about the “patients who showed the endpoint of the study / patients in the group” value [5] of the same compound?
A: The value was 7/164.

Q: What about the “patients with endpoint in comparison” value [5] of the same compound?
A: The value was “(4.3%)”.

Q: What about the “patients who showed the endpoint of the study / patients in the group” value [6] of the same compound?
A: Its value is 5/74.

Q: And the “patients with endpoint in comparison” value [6]?
A: The value was “(6.8%)”.

Q: And the “patients who showed the endpoint of the study / patients in the group” value [7]?
A: The value was 16/394.

Q: What about the “patients with endpoint in comparison” value [7] of the same compound?
A: The value was “(4.1%)”.

Q: And the “patients who showed the endpoint of the study / patients in the group” value [8]?
A: The value was 8/394.

Q: What about the “patients with endpoint in comparison” value [8] of the same compound?
A: Its value is “(2.0%)”.

Q: What about the “patients who showed the endpoint of the study / patients in the group” value [9] of the same compound?
A: Its value is 9/383.

Q: And the “patients with endpoint in comparison” value [9]?
A: Its value is “(2.3%)”.

Q: And the “patients who showed the endpoint of the study / patients in the group” value [10]?
A: The value was 16/401.

Q: What about the “patients with endpoint in comparison” value [10] of the same compound?
A: The value was “(4.0%)”.

Q: What about the “patients who showed the endpoint of the study / patients in the group” value [11] of the same compound?
A: Its value is 2/18.

Q: What about the “patients with endpoint in comparison” value [11] of the same compound?
A: Its value is “(11.1%)”.

Q: What about the “patients who showed the endpoint of the study / patients in the group” value [12] of the same compound?
A: Its value is 4/96.

Q: And the “patients with endpoint in comparison” value [12]?
A: The value was “(4.2%)”.

Q: What about the “patients who showed the endpoint of the study / patients in the group” value [13] of the same compound?
A: Its value is 6/98.

Q: And the “patients with endpoint in comparison” value [13]?
A: Its value is “(6.1%)”.

Q: And the “patients who showed the endpoint of the study / patients in the group” value [14]?
A: Its value is 6/93.

Q: And the “patients with endpoint in comparison” value [14]?
A: The value was “(6.5%)”.

Q: And the “patients who showed the endpoint of the study / patients in the group” value [15]?
A: Its value is 6/106.

Q: And the “patients with endpoint in comparison” value [15]?
A: Its value is “(5.7%)”.

Q: What about the “patients who showed the endpoint of the study / patients in the group” value (creatinine clearance 30 to 50 ml/min, Ota. infusion 0.035 mg/Kg/h) of the same compound?
A: The value was 0/7.

Q: And the “patients who showed the endpoint of the study / patients in the group” value [16]?
A: The value was 5/54.

Q: And the “patients with endpoint in comparison” value [16]?
A: The value was “(9.3%)”.

Q: What about the “patients who showed the endpoint of the study / patients in the group” value [17] of the same compound?
A: Its value is 8/46.

Q: What about the “patients with endpoint in comparison” value [17] of the same compound?
A: The value was “(17.4%)”.

Q: What about the “patients who showed the endpoint of the study / patients in the group” value [18] of the same compound?
A: Its value is 4/46.

Q: What about the “patients with endpoint in comparison” value [18] of the same compound?
A: Its value is “(8.7%)”.

Q: What about the “patients who showed the endpoint of the study / patients in the group” value [19] of the same compound?
A: The value was 3/48.

Q: What about the “patients with endpoint in comparison” value [19] of the same compound?
A: Its value is “(6.3%)”.

Q: What about the “patients who showed the endpoint of the study / patients in the group” value [20] of the same compound?
A: Its value is 5/29.

Q: What about the “patients with endpoint in comparison” value [20] of the same compound?
A: Its value is “(17.2%)”.

Q: What about the “patients who showed the endpoint of the study / patients in the group” value [21] of the same compound?
A: The value was 9/188.

Q: What about the “patients with endpoint in comparison” value [21] of the same compound?
A: The value was “(4.8%)”.

Q: What about the “patients who showed the endpoint of the study / patients in the group” value [22] of the same compound?
A: The value was 5/189.

Q: What about the “patients with endpoint in comparison” value [22] of the same compound?
A: Its value is “(2.6%)”.

Q: What about the “patients who showed the endpoint of the study / patients in the group” value [23] of the same compound?
A: The value was 6/192.

Q: What about the “patients with endpoint in comparison” value [23] of the same compound?
A: The value was “(3.1%)”.

Q: And the “patients who showed the endpoint of the study / patients in the group” value [24]?
A: Its value is 8/178.

Q: What about the “patients with endpoint in comparison” value [24] of the same compound?
A: Its value is “(4.5%)”.

Q: What about the “patients who showed the endpoint of the study / patients in the group” value (creatinine clearance <30 ml/min, Ota. infusion 0.035 mg/Kg/h) of the same compound?
A: The value was 0/2.

Q: And the “patients who showed the endpoint of the study / patients in the group” value (creatinine clearance <30 ml/min, Ota. infusion 0.070 mg/Kg/h)?
A: Its value is 0/2.

Q: And the “patients who showed the endpoint of the study / patients in the group” value (creatinine clearance <30 ml/min, Ota. infusion 0.105 mg/Kg/h)?
A: Its value is 0/0.

Q: What about the “patients who showed the endpoint of the study / patients in the group” value [25] of the same compound?
A: The value was 3/4.

Q: And the “patients with endpoint in comparison” value [25]?
A: The value was 75.0%.

Q: What about the “patients who showed the endpoint of the study / patients in the group” value (creatinine clearance <30 ml/min, Ota. infusion 0.175 mg/Kg/h) of the same compound?
A: Its value is 0/3.

Q: And the “patients who showed the endpoint of the study / patients in the group” value [26]?
A: The value was 3/79.

Q: And the “patients with endpoint in comparison” value [26]?
A: Its value is “(3.8%)”.

Q: And the “patients who showed the endpoint of the study / patients in the group” value [27]?
A: The value was 14/382.

Q: And the “patients with endpoint in comparison” value [27]?
A: The value was “(3.7%)”.

Q: And the “patients who showed the endpoint of the study / patients in the group” value [28]?
A: The value was 10/378.

Q: What about the “patients with endpoint in comparison” value [28] of the same compound?
A: The value was “(2.6%)”.

Q: And the “patients who showed the endpoint of the study / patients in the group” value [29]?
A: The value was 9/372.

Q: And the “patients with endpoint in comparison” value [29]?
A: Its value is “(2.4%)”.

Q: What about the “patients who showed the endpoint of the study / patients in the group” value [30] of the same compound?
A: Its value is 14/392.

Q: What about the “patients with endpoint in comparison” value [30] of the same compound?
A: The value was “(3.6%)”.

Q: And the “subgroup analysis of clinical results (age, gender, creatinine clearance, body weight, management of the acute coronary syndrome)” value (demographic subgroups, baseline characteristics, invasive or medical management)?
A: Its value is “consistency of the clinical results”.

Q: What about the “anticoagulation based on rates of bailout and thrombotic complications” value (dose arms 0.035 mg/Kg/h and 0.070 mg/Kg/h (dose arms 1 and 2)) of the same compound?
A: Its value is “inadequate anticoagulation”.

Q: What about the “effect on urgent revascularization or need for bailout” value [31] of the same compound?
A: The value was “no demonstrable effect”.

Q: And the “rates of primary endpoint lower than UFH+Eptifibatide” value [31]?
A: The value was 31-41%.

Reference: patent publication US9492437B2, “Otamixaban for treatment of elderly and renal impaired non-ST elevation myocardial infarction patients” (SANOFI, priority 2009, dated 2016)
